Reference: patent publication US10669272B2, “Substituted naphthyridinone compounds useful as T cell activators” (BRISTOL-MYERS SQUIBB COMPANY, priority 2018, dated 2020)
Read-outs that look alike come from different tables or passages of the source.

Legend:
human DGKα = target: T1, human DGKα (Homo sapiens, UniProt P23743); assay: DGKα LIPGLO assay (extruded liposome substrate), in vitro DGK inhibition; type: biochemical; details: read-out: DGKa LIPGLO IC50
T1 construct: TVMV protease cleavage site (C); Hexa-His (C); made in house; host or cells: Sf9 insect cells (baculovirus, Bac-to-Bac)

Human venous whole blood = assay: Human whole blood IFN-γ assay; type: cell-based; details: human whole blood, read-out: INFg Whole Blood Normalized Agonist EC50;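 note: blood from healthy donors exposed to compound for 1 h before stimulation with anti-CD3 and anti-CD28 at 1 µg/mL each, IFN-γ quantified in supernatant by AlphaLISA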
Method: Human Whole Blood IFN-γ Assay
Human venous whole blood (22.5 μL per well), obtained from healthy donors, was pre-treated with compounds for one hour at 37° C. in a humidified 95% air/5% CO2 incubator. The blood was stimulated with 2.5 μL anti-human CD3 and anti-CD28 mAb at a final concentration of 1 μg/mL each for 24 hours at 37° C. IFN-γ in the supernatants was measured using AlphLISA kit (Cat # AL217).

naïve human CD8 T cells = assay: Human CD8 T cells IFN-γ assay; type: cell-based; details: read-out: HuCD8 INFG Normalized EC50;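 note: Naïve human CD8 T cells stimulated with plate-bound anti-CD3 and soluble anti-CD28, IFN-γ in supernatant quantified by AlphaLISA and converted to pg/mL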
Method: Human CD8 T Cells IFN-γ Assay
Frozen naïve human CD8 T cells were thawed in AIM-V media, incubated for 2 h in 37° C., and counted. The 384-well tissue culture plate was coated overnight at 4° C. with 20 μL anti-human CD3 at 0.05 μg/mL in PBS, which was removed off the plate before 40,000 cells per 40 microliters CD8 T cells with 0.1 μg/mL soluble anti-human CD28 were added to each well. The compounds were transferred using an Echo liquid handler to the cell plate immediately after the cells were plated. After 20 h incubation at 37° C. incubator, 3 microliters per well supernatants transferred into a new 384-well white assay plate for cytokine measurement.
Interferon-γ (IFN-γ) was quantitated using the AlphLISA kit (Cat # AL217) as described by the manufacturer manual (Perkin Elmer). The counts from each well were converted to IFN-γ concentration (pg/mL).

human DGKζ = target: T2, human DGKζ (Homo sapiens, UniProt Q13574); assay: DGKζ LIPGLO assay (extruded liposome substrate), in vitro DGK inhibition; type: biochemical; details: read-out: DGKz LIPGLO IC50
T2 construct: TVMV protease cleavage site (C); Hexa-His (C); made in house; host or cells: Sf9 insect cells (baculovirus, Bac-to-Bac)

[1] = normalized to 3 μM reference compound with anti-CD3 plus anti-CD28 as 100% activation
[2] = Homo sapiens, T-cell, 20 h, normalized to 3 μM reference compound with anti-CD3 plus anti-CD28 as 100% activation
[3] = Homo sapiens, 24 h, normalized to 3 μM reference compound with anti-CD3 plus anti-CD28 as 100% activation

T2 sequence (Q13574 with tags, fused parts or gaps isoform Q13574-4): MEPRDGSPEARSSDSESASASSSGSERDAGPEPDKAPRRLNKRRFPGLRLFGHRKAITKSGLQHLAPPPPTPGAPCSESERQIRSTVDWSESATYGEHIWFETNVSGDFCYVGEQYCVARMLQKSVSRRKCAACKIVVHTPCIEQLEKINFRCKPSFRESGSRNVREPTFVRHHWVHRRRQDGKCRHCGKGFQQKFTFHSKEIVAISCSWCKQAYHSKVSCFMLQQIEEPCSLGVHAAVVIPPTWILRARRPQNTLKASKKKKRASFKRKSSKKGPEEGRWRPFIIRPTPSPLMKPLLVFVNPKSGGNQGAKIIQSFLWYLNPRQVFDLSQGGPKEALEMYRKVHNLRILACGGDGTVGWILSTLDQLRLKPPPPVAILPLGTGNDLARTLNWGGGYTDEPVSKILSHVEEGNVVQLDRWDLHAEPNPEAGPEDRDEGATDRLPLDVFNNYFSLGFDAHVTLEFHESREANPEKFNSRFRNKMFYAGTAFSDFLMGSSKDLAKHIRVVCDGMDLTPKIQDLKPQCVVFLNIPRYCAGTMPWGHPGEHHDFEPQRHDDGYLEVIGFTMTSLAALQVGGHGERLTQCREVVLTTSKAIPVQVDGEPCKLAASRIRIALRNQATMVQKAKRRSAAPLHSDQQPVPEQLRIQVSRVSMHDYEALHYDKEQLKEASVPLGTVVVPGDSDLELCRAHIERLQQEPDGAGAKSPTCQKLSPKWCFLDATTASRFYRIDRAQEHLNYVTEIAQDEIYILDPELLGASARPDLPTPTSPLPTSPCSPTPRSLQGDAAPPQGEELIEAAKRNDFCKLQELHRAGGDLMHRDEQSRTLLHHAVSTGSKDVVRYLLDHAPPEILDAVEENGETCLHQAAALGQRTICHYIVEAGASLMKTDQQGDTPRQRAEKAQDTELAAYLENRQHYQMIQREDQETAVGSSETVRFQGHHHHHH
T1 sequence (P23743 with tags, fused parts or gaps): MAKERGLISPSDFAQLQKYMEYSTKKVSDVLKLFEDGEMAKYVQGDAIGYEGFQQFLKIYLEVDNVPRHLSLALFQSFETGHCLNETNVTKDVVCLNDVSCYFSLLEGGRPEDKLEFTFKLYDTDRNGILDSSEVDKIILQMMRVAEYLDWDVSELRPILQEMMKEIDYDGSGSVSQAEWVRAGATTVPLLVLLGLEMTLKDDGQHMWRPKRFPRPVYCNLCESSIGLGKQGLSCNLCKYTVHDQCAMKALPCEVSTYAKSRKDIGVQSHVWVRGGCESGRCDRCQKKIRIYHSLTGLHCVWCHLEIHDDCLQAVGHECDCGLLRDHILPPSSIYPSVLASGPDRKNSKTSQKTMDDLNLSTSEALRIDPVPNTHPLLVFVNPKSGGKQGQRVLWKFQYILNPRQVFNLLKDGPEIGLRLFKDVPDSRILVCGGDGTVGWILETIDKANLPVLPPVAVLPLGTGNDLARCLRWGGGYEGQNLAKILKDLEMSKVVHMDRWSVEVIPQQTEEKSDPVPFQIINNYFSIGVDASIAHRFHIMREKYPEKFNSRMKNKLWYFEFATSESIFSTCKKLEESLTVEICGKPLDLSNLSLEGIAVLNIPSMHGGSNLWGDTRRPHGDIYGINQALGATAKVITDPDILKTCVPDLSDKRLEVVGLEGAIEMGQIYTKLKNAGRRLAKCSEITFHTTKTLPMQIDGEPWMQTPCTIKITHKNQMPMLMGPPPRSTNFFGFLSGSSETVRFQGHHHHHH

| SMILES | IC50 (human DGKα; liposome (LIPGLO) assay) [nM] | EC50 (Human venous whole blood; [1]) [nM] | EC50 (naïve human CD8 T cells; [1]) [nM] | IC50 (human DGKζ; liposome (LIPGLO) assay) [nM] | EC50 (naïve human CD8 T cells; [2]) [nM] | EC50 (Human venous whole blood; [3]) [nM] | further results |
| --- | --- | --- | --- | --- | --- | --- | --- |
| CCc1cc(F)ccc1C(c1ccc(Cl)cc1)N1C[C@H](C)N(c2cc(=O)n(C)c3ccc(OC)nc23)C[C@H]1C (single isomer, unassigned) [Example 232] | 240000 | 20000 | 10000 | 1700 |  |  |  |
| C[C@@H]1CN(c2cc(=O)n(C)c3ccc(C#N)nc23)[C@@H](C)CN1Cc1ccc(F)cc1C(F)F [Example 242, 8-[(2S,5R)-4-{[2-(difluoromethyl)-4-fluorophenyl]methyl}-2,5-dimethylpiperazin-1-yl]-5-methyl-6-oxo-5,6-dihydro-1,5-naphthyridine-2-carbonitrile] | 4400 |  |  | 970 | 170 |  | EC50 (Human venous whole blood; Homo sapiens, normalized to 3 μM reference compound with anti-CD3 plus anti-CD28 as 100% activation): 1500 nM |
| C[C@@H]1CN(c2cc(=O)n(C)c3ccc(C#N)nc23)[C@@H](C)CN1C(c1ccc(F)cc1)c1ccon1 (single isomer, unassigned) [Example 707] | 150 | 400 |  | 1700 | 44 |  |  |
| CCOc1ncccc1C(c1ccc(F)cc1)N1C[C@H](C)N(c2cc(=O)n(C)c3ccc(C#N)nc23)C[C@H]1C (single isomer, unassigned) [Example 206] | 24000 | 1400 | 39 | 440 |  |  |  |
| C[C@@H]1CN(c2cc(=O)n(C)c3ccc(C#N)nc23)[C@@H](C)CN1C(c1ccccc1)c1ccccc1F (stereo partly drawn) [Example 285, 8-[(2S,5R)-4-[(2-fluorophenyl)(phenyl)methyl]-2,5-dimethylpiperazin-1-yl]-5-methyl-6-oxo-5,6-dihydro-1,5-naphthyridine-2-carbonitrile] | 270 |  |  | 680 | 150 | 1500 |  |
| Cc1ccc(C(c2ccc(F)cn2)N2C[C@H](C)N(c3c(C#N)c(=O)n(C)c4ccc(C#N)nc34)C[C@H]2C)cc1 (stereo partly drawn) [Example 833] |  |  |  |  |  |  | IC50 (human DGKα; DGKα liposome (LIPGLO) assay): 2000 nM; EC50 (Human venous whole blood; Homo sapiens, 24 h, anti-CD3 plus anti-CD28, 24 hours, 3 μM reference compound = 100% activation): 680 nM; EC50 (naïve human CD8 T cells; Homo sapiens, T-cell, 20 h, naïve human CD8 T cells, anti-CD3 plus anti-CD28, 3 μM reference compound = 100% activation): 320 nM; IC50 (human DGKζ; DGKζ liposome (LIPGLO) assay): 2800 nM |
| C[C@@H]1CN(c2c(F)c(=O)n(C)c3ccc(C#N)nc23)CCN1C(c1ccc(Cl)cc1)c1ccc(Cl)cc1 [Example 34, (R)-8-(4-(bis(4-chlorophenyl)methyl)-3-methylpiperazin-1-yl)-7-fluoro-5-methyl-6-oxo-5,6-dihydro-1,5-naphthyridine-2-carbonitrile] | 690 |  |  | 510 | 180 | 1300 |  |
| CC[C@H]1CN(C(C)c2ccc(F)cc2)[C@H](C)CN1c1cc(=O)n(C)c2ccc(C#N)nc12 (single isomer, unassigned) [Example 1135] | 18 | 320 |  | 360 | 22 |  |  |
| C[C@@H]1CN(c2cc(=O)n(C)c3ccc(C#N)nc23)[C@@H](C)CN1C(c1ccc(F)cc1)c1ccccn1 (single isomer, unassigned) [Example 198] | 240 | 590 | 21 | 870 |  |  |  |
| C[C@@H]1CN(c2cc(=O)n(C)c3ccc(C#N)nc23)[C@@H](C)CN1C(c1ccc(F)cc1)c1ccc(Cl)cn1 (single isomer, unassigned) [Example 212] | 210 | 890 | 57 | 590 |  |  |  |
| Cc1nccc(C(c2ccc(F)cc2)N2C[C@H](C)N(c3cc(=O)n(C)c4ccc(C#N)nc34)C[C@H]2C)n1 (single isomer, unassigned) [Example 389] | 2200 | 280 |  | 1100 | 25 |  |  |
| CC(C)[C@H]1CN(c2cc(=O)n(C)c3ccc(C#N)nc23)CCN1C(c1ccc(F)cc1)c1ccc(F)cc1 [Example 10, (S)-8-(4-(bis(4-fluorophenyl)methyl)-3-isopropylpiperazin-1-yl)-5-methyl-6-oxo-5,6-dihydro-1,5-naphthyridine-2-carbonitrile] | 97000 |  |  | 5100 | 150 | 5000 |  |
| Cc1cccc(C(c2ccc(F)cc2)N2C[C@H](C)N(c3cc(=O)n(C)c4ccc(C#N)nc34)C[C@H]2C)n1 (single isomer, unassigned) [Example 204] | 1300 | 620 | 12 | 220 |  |  |  |
| C[C@@H]1CN(c2cc(=O)n(C)c3ccc(C#N)nc23)[C@@H](C)CN1C(c1ccc(F)cc1)c1cccc(F)c1 (mixture of isomers) [Example 248, 8-[(2S,5R)-4-[(3-fluorophenyl)(4-fluorophenyl)methyl]-2,5-dimethylpiperazin-1-yl]-5-methyl-6-oxo-5,6-dihydro-1,5-naphthyridine-2-carbonitrile] | 1300 |  |  | 790 | 53 | 710 |  |
| C[C@@H]1CN(c2cc(=O)n(C)c3ccc(C#N)nc23)[C@@H](C)CN1C(c1ccc(F)c(F)c1)c1ccccn1 (single isomer, unassigned) [Example 376] | 2900 | 380 | 28 | 1100 |  |  |  |
| C[C@@H]1CN(c2cc(=O)n(C)c3ccc(C#N)nc23)[C@@H](C)CN1C(c1ccc(OC(F)(F)F)cc1)c1cccc(F)n1 (single isomer, unassigned) [Example 368] | 1700 | 460 | 10 | 2500 |  |  |  |
| C[C@@H]1CN(c2c(C#N)c(=O)n(C)c3ccc(C#N)nc23)CCN1C(c1ccc(F)cc1)c1ccc(Cl)cn1 (stereo partly drawn) [Example 933] |  |  |  |  |  |  | IC50 (human DGKα; DGKα liposome (LIPGLO) assay): 200 nM; EC50 (Human venous whole blood; anti-CD3 plus anti-CD28, 24 hours, 3 μM reference compound = 100% activation): 550 nM; EC50 (naïve human CD8 T cells; naïve human CD8 T cells, anti-CD3 plus anti-CD28, 3 μM reference compound = 100% activation): 350 nM; IC50 (human DGKζ; DGKζ liposome (LIPGLO) assay): 1000 nM |
| Cc1ccc(C(c2cccc(Cl)c2)N2C[C@H](C)N(c3cc(=O)n(C)c4ccc(C#N)nc34)C[C@H]2C)nc1 (single isomer, unassigned) [Example 369] | 2800 |  | 150 | 1400 |  | 480 |  |
| CCc1ccc(C(c2cccc(F)c2)N2C[C@H](C)N(c3cc(=O)n(C)c4ccc(C#N)nc34)C[C@H]2C)nc1 (single isomer, unassigned) [Example 351] | 640 | 89 | 31 | 1300 |  |  |  |
| C[C@@H]1CN(c2cc(=O)n(C)c3ccc(C#N)nc23)[C@@H](C)CN1C(c1ccc(F)cc1)c1c(F)cccc1F (single isomer, unassigned) [Example 274] | 5700 |  | 42 | 2500 |  | 3600 |  |
| CC[C@@H]1CN(c2cc(=O)n(C)c3ccc(C#N)nc23)[C@@H](C)CN1C(c1ccc(F)cc1)c1ccc(C#N)cc1 (single isomer, unassigned) [Example 1103] | 250 | 260 | 21 | 270 |  |  |  |
| CC[C@@H]1CN(c2cc(=O)n(C)c3ccc(C#N)nc23)[C@@H](C)CN1C(c1ccc(Cl)cc1)c1ccc(Cl)cc1 [Example 1099] | 1700 |  |  | 1500 | 2.5 | 220 |  |
| C[C@@H]1CN(c2cc(=O)n(C)c3ccc(C#N)nc23)[C@@H](C)CN1Cc1c(F)cccc1C(F)(F)F [Example 254, 8-[(2S,5R)-4-{[2-fluoro-6-(trifluoromethyl)phenyl]methyl}-2,5-dimethylpiperazin-1-yl]-5-methyl-6-oxo-5,6-dihydro-1,5-naphthyridine-2-carbonitrile] | 140 |  |  | 1600 | 210 | 2200 |  |
| Cc1ccc(C(c2ccc(C)c(Cl)c2)N2C[C@H](C)N(c3cc(=O)n(C)c4ccc(C#N)nc34)C[C@H]2C)nc1 (single isomer, unassigned) [Example 373] | 6500 |  |  | 740 | 180 | 320 |  |
